According to ChEMBL document CHEMBL1201862, “PubChem BioAssay data set” (2004):
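Protocol summary: plate cells (96-well), add compound at 5 concentrations, incubate 48 h, interpolate endpoints linearly. The concentration for 50% growth inhibition is given as GI50.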 Active and inactive are the calls of the source. Rule as the data show it: active = GI50 up to about 1.1 µM and inactive = higher.

Key:
Assay in all cases: inhibition of tumour cell growth, NCI panel, 48 h
IGROV-1 = test system: IGROV-1
DMS-114 = test system: DMS-114
SF-268 = test system: SF-268
Malme-3M = test system: Malme-3M
LOX IMVI = test system: LOX IMVI
M14 = test system: M14
M19-MEL = test system: M19-MEL
786-0 = test system: 786-0
SN12C = test system: SN12C
HOP-62 = test system: HOP-62
TK-10 = test system: TK-10
A498 = test system: A498
SF-539 = test system: SF-539
EKVX = test system: EKVX
UACC-62 = test system: UACC-62
U-251 = test system: U-251
HOP-92 = test system: HOP-92
SK-OV-3 = test system: SK-OV-3

Measured: GI50

Cc1ccc(C2(C)NC(=S)N(NC(N)=S)C2=S)cc1 (stereo not given)
inactive: IGROV-1 > 100 µM | DMS-114 73.6 µM | SF-268 > 100 µM | Malme-3M > 100 µM | LOX IMVI 47 µM | M14 > 100 µM | M19-MEL > 100 µM | 786-0 81.1 µM | SN12C > 100 µM | HOP-62 > 100 µM | TK-10 > 100 µM | A498 > 100 µM | SF-539 > 100 µM | EKVX > 100 µM | UACC-62 43.2 µM | U-251 > 100 µM

COc1ccc2c3c([nH]c2c1CC=C(C)C)C(=O)C=C(C)C3=O
inactive: IGROV-1 > 25 µM | DMS-114 18.3 µM | HOP-92 > 25 µM | SF-268 12.3 µM | Malme-3M 16.1 µM | M14 > 25 µM | M19-MEL 11.6 µM | 786-0 > 25 µM | SN12C > 25 µM | SK-OV-3 > 25 µM | HOP-62 > 25 µM | TK-10 > 25 µM | SF-539 > 25 µM | EKVX > 25 µM | UACC-62 > 25 µM | U-251 > 25 µM

CCSC(=O)C1(C)OC2CCCCC2C1=O (stereo not given)
inactive: IGROV-1 > 100 µM | DMS-114 > 100 µM | SF-268 > 100 µM | Malme-3M > 100 µM | M14 > 100 µM | M19-MEL > 100 µM | 786-0 > 100 µM | SN12C > 100 µM | SK-OV-3 > 100 µM | HOP-62 > 100 µM | TK-10 > 100 µM | A498 > 100 µM | SF-539 > 100 µM | UACC-62 > 100 µM | U-251 > 100 µM

CCOP(=O)(C/C(=N/NC(C)(C)C)C(=O)Nc1nc2ccc(C)cc2s1)OCC
inactive: IGROV-1 > 100 µM | DMS-114 > 100 µM | SF-268 > 100 µM | Malme-3M > 100 µM | LOX IMVI > 100 µM | M14 > 100 µM | M19-MEL > 100 µM | 786-0 > 100 µM | SN12C > 100 µM | SK-OV-3 > 100 µM | HOP-62 > 100 µM | TK-10 > 100 µM | A498 > 100 µM | SF-539 > 100 µM | EKVX > 100 µM | UACC-62 > 100 µM | U-251 > 100 µM

CCOC(=O)/C([O-])=C(\C(=O)OCC)[n+]1c(C)n(C)c2ccccc21
inactive: IGROV-1 > 100 µM | DMS-114 > 100 µM | SF-268 > 100 µM | Malme-3M > 100 µM | LOX IMVI > 100 µM | M14 > 100 µM | M19-MEL > 100 µM | 786-0 > 100 µM | SK-OV-3 > 100 µM | HOP-62 > 100 µM | TK-10 > 100 µM | A498 > 100 µM | SF-539 > 100 µM | EKVX > 100 µM | UACC-62 > 100 µM | U-251 > 100 µM

O=C(c1nc2ccccc2nc1O)C(O)c1ccco1 (stereo not given)
inactive: IGROV-1 > 100 µM | DMS-114 52.6 µM | HOP-92 > 100 µM | SF-268 > 100 µM | Malme-3M > 100 µM | LOX IMVI > 100 µM | M14 > 100 µM | M19-MEL > 100 µM | 786-0 > 100 µM | SN12C > 100 µM | SK-OV-3 > 100 µM | HOP-62 > 100 µM | TK-10 > 100 µM | SF-539 > 100 µM | EKVX > 100 µM | UACC-62 61.5 µM | U-251 > 100 µM

Cc1ccc(SSCCCS(=O)O)cc1
inactive: IGROV-1 7.93 µM | DMS-114 15.9 µM | SF-268 12.2 µM | Malme-3M > 100 µM | LOX IMVI 11.4 µM | M14 38.6 µM | M19-MEL 31.8 µM | 786-0 40.4 µM | SN12C 21.6 µM | SK-OV-3 49.2 µM | HOP-62 29.2 µM | TK-10 39.5 µM | A498 28.1 µM | SF-539 20.7 µM | EKVX 33.1 µM | UACC-62 27.2 µM | U-251 17.4 µM

O=C(Nc1cccc2c1C(=O)c1c(NC(=O)c3ccccc3)ccc(Nc3cccc4c3C(=O)c3ccccc3C4=O)c1C2=O)c1ccccc1
inactive: IGROV-1 > 100 µM | DMS-114 > 100 µM | SF-268 > 100 µM | Malme-3M > 100 µM | M14 > 100 µM | M19-MEL > 100 µM | 786-0 > 100 µM | SN12C > 100 µM | SK-OV-3 > 100 µM | HOP-62 > 100 µM | TK-10 > 100 µM | A498 > 100 µM | SF-539 > 100 µM | EKVX > 100 µM | UACC-62 > 100 µM | U-251 > 100 µM

C/C(CC(=O)Nc1ccc([N+](=O)[O-])cc1)=N/N=C(N)N
inactive: IGROV-1 > 100 µM | DMS-114 > 100 µM | HOP-92 > 100 µM | SF-268 > 100 µM | Malme-3M > 100 µM | LOX IMVI > 100 µM | M14 > 100 µM | M19-MEL > 100 µM | 786-0 > 100 µM | SK-OV-3 > 100 µM | HOP-62 > 100 µM | TK-10 > 100 µM | SF-539 > 100 µM | EKVX > 100 µM | UACC-62 > 100 µM | U-251 > 100 µM

CCN1C(=O)C(N=[N+]=[N-])(c2ccccc2)C(=O)c2ccccc21 (stereo not given)
inactive: IGROV-1 > 100 µM | DMS-114 41.7 µM | HOP-92 31.4 µM | SF-268 83.2 µM | Malme-3M 67 µM | LOX IMVI > 100 µM | M14 41.9 µM | M19-MEL 43.1 µM | 786-0 > 100 µM | SN12C > 100 µM | SK-OV-3 > 100 µM | HOP-62 > 100 µM | TK-10 > 100 µM | SF-539 > 100 µM | EKVX 32.9 µM | UACC-62 62.8 µM | U-251 > 100 µM

O=C1NC2(O)c3ccccc3C(=O)C2(O)N1c1ccccc1 (stereo not given)
inactive: IGROV-1 > 100 µM | DMS-114 > 100 µM | HOP-92 > 100 µM | SF-268 > 100 µM | Malme-3M > 100 µM | LOX IMVI > 100 µM | M14 > 100 µM | M19-MEL > 100 µM | 786-0 > 100 µM | SK-OV-3 > 100 µM | TK-10 > 100 µM | SF-539 > 100 µM | EKVX > 100 µM | UACC-62 > 100 µM | U-251 > 100 µM

Cc1nc(-n2nc(-c3ccccc3)cc2-c2ccccc2)sc1C(=O)/C=C/c1ccc(/C=C/C(=O)c2sc(-n3nc(-c4ccccc4)cc3-c3ccccc3)nc2C)cc1
inactive: IGROV-1 15.2 µM | DMS-114 36.9 µM | SF-268 23.2 µM | Malme-3M 19.1 µM | LOX IMVI 20 µM | M14 20 µM | M19-MEL 25.9 µM | 786-0 18.6 µM | SN12C 19.6 µM | SK-OV-3 > 100 µM | HOP-62 23.6 µM | TK-10 34.1 µM | SF-539 19.2 µM | EKVX 46.5 µM | UACC-62 > 10 µM | U-251 19 µM

NC12CC3CC(C1)CC(C(=O)O)(C3)C2
inactive: IGROV-1 > 100 µM | DMS-114 > 100 µM | HOP-92 > 100 µM | SF-268 > 100 µM | LOX IMVI > 100 µM | M14 > 100 µM | M19-MEL > 100 µM | 786-0 > 100 µM | SN12C > 100 µM | SK-OV-3 > 100 µM | HOP-62 > 100 µM | TK-10 > 100 µM | A498 > 100 µM | SF-539 > 100 µM | EKVX > 100 µM | UACC-62 > 100 µM | U-251 > 100 µM

COc1cc([C@@H]2c3cc4c(cc3[C@@H](OC(=O)c3ccc(N)cc3)C3COC(=O)[C@@H]32)OCO4)cc(OC)c1O (stereo not given in full)
inactive: IGROV-1 2.8 µM | HOP-92 3.77 µM | SF-268 9.59 µM | Malme-3M 12.3 µM | LOX IMVI 10.6 µM | M14 16.8 µM | M19-MEL 4.99 µM | 786-0 7.08 µM | SN12C 4.21 µM | SK-OV-3 3.2 µM | HOP-62 3.5 µM | TK-10 17.6 µM | A498 5.82 µM | SF-539 2.54 µM | EKVX 20.2 µM | UACC-62 4.91 µM | U-251 4.45 µM

O=C1CCC2(CCC(=O)NC2=O)C(=O)N1
inactive: IGROV-1 > 100 µM | DMS-114 > 100 µM | SF-268 > 100 µM | Malme-3M > 100 µM | LOX IMVI > 100 µM | M14 > 100 µM | M19-MEL > 100 µM | 786-0 > 100 µM | SN12C > 100 µM | SK-OV-3 > 100 µM | HOP-62 > 100 µM | TK-10 > 100 µM | SF-539 > 100 µM | EKVX > 100 µM | U-251 > 100 µM

N#CCCN(c1ccc(-c2nnc(NC(=O)CNNC(=O)CC(=O)Nc3ccccc3)s2)cc1)S(=O)(=O)c1ccccc1
inactive: IGROV-1 > 100 µM | DMS-114 55.8 µM | HOP-92 79.6 µM | SF-268 > 100 µM | Malme-3M > 100 µM | LOX IMVI > 100 µM | M19-MEL > 100 µM | 786-0 > 100 µM | SN12C > 100 µM | SK-OV-3 > 100 µM | HOP-62 > 100 µM | TK-10 > 100 µM | A498 > 100 µM | SF-539 > 100 µM | EKVX > 100 µM | UACC-62 50.8 µM | U-251 > 100 µM
